The text below walks through data of patent publication US8916526B2, “Flavanone derivative” (National University Corporation Okayama University, priority 2009, dated 2014).

Each structure is given as a SMILES string. Converted amounts (≈) assume the structure as drawn.

In assay [1] the test system is MRSA OM58. The experiment in a line: In vitro infectivity assay (MIC), broth dilution, Exp. Ex. 1-1. Particulars: MRSA OM58; Mueller-Hinton broth, 35° C., 24 hours. It counts as cell-based, Staphylococcus aureus. The protocol: (§1) The antibacterial activities were measured based on broth dilution techniques of international standards (Clinical Laboratory Standards Institute: CLSI). The activities were shown by minimum inhibitory concentrations (MICs) determined by inoculating the above-mentioned strains at a concentration of about 10^5 […] into Mueller-Hinton broth (manufactured by Difco) containing 0.85% NaCl in 96-well microplates and incubating the plates at 35° C. for 24 hours. Measurement was carried out three times.
(§2) The antibacterial activities of the compounds of the present invention against various strains such as methicillin-resistant Staphylococcus aureus (MRSA), vancomycin intermediate-resistant Staphylococcus aureus (VISA), methicillin-sensitive Staphylococcus aureus (MSSA), and vancomycin-resistant enterococci (VRE) were examined. Of the bacteria used in MIC measurement in this test example, clinical bacteria of MRSA (OM481 strain and OM584 strain) were supplied from Okayama University Hospital (Japan). An MRSA strain N315, a vancomycin intermediate-resistant Staphylococcus aureus (VISA) strain Mu50, and a methicillin-sensitive Staphylococcus aureus (MSSA) strain FDA 209P were used as controls. Vancomycin-resistant enterococcus (VRE) strains NCTC 12201 and FN-1 were supplied from the National Institute of Infectious Disease (Japan).
(In general: In broth dilution the organism is exposed to a series of concentrations in liquid medium.)

Assay [2] concerns VISA Mu50. The description is as above. It counts as cell-based, Staphylococcus aureus. The conditions noted are these: VISA Mu50; Mueller-Hinton broth, 35° C., 24 hours. The protocol:
as §1, §2

For assay [3], the system named is MRSA N315. The assay is described as above. It counts as cell-based, Staphylococcus aureus. The conditions noted are these: MRSA N315; Mueller-Hinton broth, 35° C., 24 hours. The protocol:
as §1, §2

Assay [4] has as its system MSSA FDA 209P. Described as above. It counts as cell-based, Staphylococcus aureus. Particulars: MSSA FDA 209P; Mueller-Hinton broth, 35° C., 24 hours. As to the method:
as §1, §2

Assay [5] relates to MRSA OM481. The assay is described as above. It counts as cell-based, Staphylococcus aureus. Particulars: MRSA OM481; Mueller-Hinton broth, 35° C., 24 hours. The protocol: as §1, §2
In assay [6] the test system is VRE FN-1. The assay is described as above. It counts as cell-based, enterococci. Particulars: VRE FN-1; Mueller-Hinton broth, 35° C., 24 hours. As to the method: as §1, §2
For assay [7], the system named is VRE NCTC12201. Described as above. Particulars: VRE NCTC12201; Mueller-Hinton broth, 35° C., 24 hours. It counts as cell-based, enterococci. The protocol:
as §1, §2

Assay [8] deals with T1, DNA gyrase of Escherichia coli (Escherichia coli, UniProt P0AES4+P0AES6).
T1 construct: purchased John Innes Enterprises #K0001
The experiment in a line: DNA gyrase inhibition (supercoiling assay kit), Exp. Ex. 1-2. The conditions noted are these: E. coli DNA gyrase supercoiling, relaxed pBR322, 37° C., 30 minutes. It counts as biochemical. The protocol:
(§3) As a kit for measurement of DNA gyrase of Escherichia coli, a product purchased from John Innes Enterprises (Gyrase Supercoiling assay kit #K0001) was used. Relaxed DNA was modified with gyrase into supercoiled DNA, and reaction products were separated by electrophoresis depending on the sizes of the molecular weights to examine anti-gyrase effects (IC50). One unit (1 U) of DNA gyrase and […] of relaxed pBR322 DNA were added to […] of the reaction solution, and the mixture was allowed to react at 37° C. for 30 minutes in the presence of 35 mM Tris-HCl (pH 7.5), 24 mM KCl, 4 mM MgCl2, 2 mM DTT, 1.8 mM spermidine, 1 mM ATP, 6.5% (w/v) glycerol, and 0.1 mg/ml BSA. The reactions were stopped using […] of a reaction stop solution (40% sucrose, 100 mM Tris-HCl (pH 7.5), 1 mM EDTA, 0.5 mg/ml bromophenol blue).

Assay [9] has as its target T2, Escherichia coli Topoisomerase IV (Escherichia coli, UniProt P0AFI2+P20083).
T2 construct: purchased John Innes Enterprises
The experiment in a line: Topoisomerase IV inhibition (decatenation kit), Exp. Ex. 2-3. It counts as biochemical. Particulars: decatenation of kDNA, 37° C., 30 minutes; read-out: IC50 (E. coli topoisomerase IV inhibitions). The protocol:
(§4) Staphylococcus aureus Topoisomerase IV and Escherichia coli Topoisomerase IV were purchased from John Innes Enterprises. 1 unit of topoisomerase IV was cultured with 200 ng of kinetoplast DNA (kDNA) in 30 L of a reaction solution at 37° C. for 30 minutes under the conditions of 50 mM Tris-HCl (pH 7.5) (S. aureus)/50 mM HEPES-KOH (pH 7.6) (E. coli), 5 mM MgCl2 (S. aureus)/5 mM magnesium acetate (E. coli), 350 mM potassium glutamate (S. aureus)/100 mM potassium glutamate (E. coli), 5 mM dithiotheri (S. aureus)/10 mM dithiotheri (E. coli), 1.5 mM ATP (S. aureus)/1 mM ATP (E. coli), and 40% (w/v) glycerol. The reactions were stopped by adding 8 L of a reaction stop solution (40% sucrose, 100 mM Tris.HCl (pH 7.5), 1 mM EDTA, 0.5 mg/ml bromophenol blue). Agarose gel (1.0%) was poured into TAE (40 mM Tris acetate, 2 mM EDTA).

The target in assay [10] is T3, Staphylococcus aureus Topoisomerase IV (Staphylococcus aureus, UniProt P0C1S7+P0C1U9).
T3 construct: purchased John Innes Enterprises
The assay is described as above. It counts as biochemical. Particulars: decatenation of kDNA, 37° C., 30 minutes; read-out: IC50 (S. aureus topoisomerase IV inhibitions). As to the method:
as §4

Assay [11] has as its target T4, E. coli DNA gyrase (Escherichia coli, UniProt P0AES4+P0AES6).
T4 construct: purchased John Innes Enterprises #K0001
The experiment in a line: DNA gyrase inhibition (supercoiling kit), Exp. Ex. 2-2. Particulars: supercoiling activity, 37° C., 30 minutes; read-out: IC50 (E. coli DNA gyrase inhibitions). It counts as biochemical. As to the method: as §3, with “1” for “One”

The subject of assay [12] is Streptococcus pneumoniae R6. Description: In vitro infectivity assay (MIC), Exp. Ex. 2-1. It counts as cell-based. The conditions noted are these: Gram-positive; microdilution, MIC after 24 h.
The test system of assay [13] is Methicillin-resistant S. aureus OM584. The experiment in a line: In vitro infectivity assay (MIC), Exp. Ex. 2-1. It counts as cell-based, Staphylococcus aureus. Particulars: Gram-positive; microdilution, MIC after 24 h. The protocol:
as §1
as §2, with “vancomycin-resistant enterococci (VRE),” for “methicillin-resistant Staphylococcus aureus (MRSA),”, “(VISA), methicillin-resistant Staphylococcus aureus (MRSA), and” for “(VISA),”, “(MSSA)” for “(MSSA), and vancomycin-resistant enterococci (VRE)”

Assay [14] has as its system Methicillin-resistant S. aureus N315. Description: In vitro infectivity assay (MIC), Exp. Ex. 2-1. It counts as cell-based, Staphylococcus aureus. The conditions noted are these: Gram-positive; microdilution, MIC after 24 h. As to the method: as §1
as §2, with “vancomycin-resistant enterococci (VRE),” for “methicillin-resistant Staphylococcus aureus (MRSA),”, “(VISA), methicillin-resistant Staphylococcus aureus (MRSA), and” for “(VISA),”, “(MSSA)” for “(MSSA), and vancomycin-resistant enterococci (VRE)”

The test system of assay [15] is Methicillin-resistant S. aureus OM481. The experiment in a line: In vitro infectivity assay (MIC), Exp. Ex. 2-1. It counts as cell-based, Staphylococcus aureus. The conditions noted are these: Gram-positive; microdilution, MIC after 24 h. As to the method: as §1
as §2, with “vancomycin-resistant enterococci (VRE),” for “methicillin-resistant Staphylococcus aureus (MRSA),”, “(VISA), methicillin-resistant Staphylococcus aureus (MRSA), and” for “(VISA),”, “(MSSA)” for “(MSSA), and vancomycin-resistant enterococci (VRE)”

Assay [16] relates to Methicillin sensitive S. aureus 209P. The experiment in a line: In vitro infectivity assay (MIC), Exp. Ex. 2-1. It counts as cell-based, Staphylococcus aureus. The conditions noted are these: Gram-positive; microdilution, MIC after 24 h. The protocol:
as §1
as §2, with “vancomycin-resistant enterococci (VRE),” for “methicillin-resistant Staphylococcus aureus (MRSA),”, “(VISA), methicillin-resistant Staphylococcus aureus (MRSA), and” for “(VISA),”, “(MSSA)” for “(MSSA), and vancomycin-resistant enterococci (VRE)”

For assay [17], the system named is Methicillin-resistant S. aureus COL. The experiment in a line: In vitro infectivity assay (MIC), Exp. Ex. 2-1. Particulars: Gram-positive; microdilution, MIC after 24 h. It counts as cell-based, Staphylococcus aureus. As to the method:
as §1
as §2, with “vancomycin-resistant enterococci (VRE),” for “methicillin-resistant Staphylococcus aureus (MRSA),”, “(VISA), methicillin-resistant Staphylococcus aureus (MRSA), and” for “(VISA),”, “(MSSA)” for “(MSSA), and vancomycin-resistant enterococci (VRE)”

The subject of assay [18] is Vancomycin-resistant enterococci NCTC 12201. Description: In vitro infectivity assay (MIC), Exp. Ex. 2-1. It counts as cell-based. The conditions noted are these: Gram-positive; microdilution, MIC after 24 h. The protocol:
as §1
as §2, with “vancomycin-resistant enterococci (VRE),” for “methicillin-resistant Staphylococcus aureus (MRSA),”, “(VISA), methicillin-resistant Staphylococcus aureus (MRSA), and” for “(VISA),”, “(MSSA)” for “(MSSA), and vancomycin-resistant enterococci (VRE)”

The subject of assay [19] is Vancomycin-resistant enterococci FN-1. The experiment in a line: In vitro infectivity assay (MIC), Exp. Ex. 2-1. It counts as cell-based. Particulars: Gram-positive; microdilution, MIC after 24 h. The protocol:
as §1
as §2, with “vancomycin-resistant enterococci (VRE),” for “methicillin-resistant Staphylococcus aureus (MRSA),”, “(VISA), methicillin-resistant Staphylococcus aureus (MRSA), and” for “(VISA),”, “(MSSA)” for “(MSSA), and vancomycin-resistant enterococci (VRE)”

Assay [20] relates to Vancomycin intermediate-resistant Staphylococcus aureus Mu50. The experiment in a line: In vitro infectivity assay (MIC), Exp. Ex. 2-1. It counts as cell-based. The conditions noted are these: Gram-positive; microdilution, MIC after 24 h. As to the method:
as §1
as §2, with “vancomycin-resistant enterococci (VRE),” for “methicillin-resistant Staphylococcus aureus (MRSA),”, “(VISA), methicillin-resistant Staphylococcus aureus (MRSA), and” for “(VISA),”, “(MSSA)” for “(MSSA), and vancomycin-resistant enterococci (VRE)”

The subject of assay [21] is Escherichia coli K-12. Description: Antibacterial activity (MIC) against Gram-negative strains, microdilution. It counts as cell-based. Particulars: MIC after 24 h. As to the method: as §1
Assay [22] concerns Pseodomonas aeruginosa PAOI. Described as above. It counts as cell-based. The conditions noted are these: MIC after 24 h. As to the method: as §1

T3 sequence (P0C1U9 whole entry): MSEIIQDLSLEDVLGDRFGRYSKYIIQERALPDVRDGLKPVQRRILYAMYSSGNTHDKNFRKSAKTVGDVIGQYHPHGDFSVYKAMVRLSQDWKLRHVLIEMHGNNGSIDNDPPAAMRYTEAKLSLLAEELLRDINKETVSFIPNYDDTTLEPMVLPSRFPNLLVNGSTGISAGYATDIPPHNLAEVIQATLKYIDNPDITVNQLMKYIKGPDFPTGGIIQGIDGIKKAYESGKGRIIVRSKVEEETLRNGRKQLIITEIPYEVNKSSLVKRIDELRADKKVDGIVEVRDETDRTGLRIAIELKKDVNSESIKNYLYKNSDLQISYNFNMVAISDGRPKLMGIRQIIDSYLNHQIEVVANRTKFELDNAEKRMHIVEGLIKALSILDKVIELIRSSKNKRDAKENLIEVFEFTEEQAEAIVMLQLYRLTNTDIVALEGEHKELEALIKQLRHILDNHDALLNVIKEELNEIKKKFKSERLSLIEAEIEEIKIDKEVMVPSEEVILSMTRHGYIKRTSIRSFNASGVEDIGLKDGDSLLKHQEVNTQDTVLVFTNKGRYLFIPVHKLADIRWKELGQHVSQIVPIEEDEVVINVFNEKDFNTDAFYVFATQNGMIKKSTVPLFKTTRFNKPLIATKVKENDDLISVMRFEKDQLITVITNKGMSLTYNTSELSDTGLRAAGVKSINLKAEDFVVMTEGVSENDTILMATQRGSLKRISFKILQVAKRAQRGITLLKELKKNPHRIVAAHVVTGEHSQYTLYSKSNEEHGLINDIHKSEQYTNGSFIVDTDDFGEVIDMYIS
T3 sequence (P0C1S7 whole entry): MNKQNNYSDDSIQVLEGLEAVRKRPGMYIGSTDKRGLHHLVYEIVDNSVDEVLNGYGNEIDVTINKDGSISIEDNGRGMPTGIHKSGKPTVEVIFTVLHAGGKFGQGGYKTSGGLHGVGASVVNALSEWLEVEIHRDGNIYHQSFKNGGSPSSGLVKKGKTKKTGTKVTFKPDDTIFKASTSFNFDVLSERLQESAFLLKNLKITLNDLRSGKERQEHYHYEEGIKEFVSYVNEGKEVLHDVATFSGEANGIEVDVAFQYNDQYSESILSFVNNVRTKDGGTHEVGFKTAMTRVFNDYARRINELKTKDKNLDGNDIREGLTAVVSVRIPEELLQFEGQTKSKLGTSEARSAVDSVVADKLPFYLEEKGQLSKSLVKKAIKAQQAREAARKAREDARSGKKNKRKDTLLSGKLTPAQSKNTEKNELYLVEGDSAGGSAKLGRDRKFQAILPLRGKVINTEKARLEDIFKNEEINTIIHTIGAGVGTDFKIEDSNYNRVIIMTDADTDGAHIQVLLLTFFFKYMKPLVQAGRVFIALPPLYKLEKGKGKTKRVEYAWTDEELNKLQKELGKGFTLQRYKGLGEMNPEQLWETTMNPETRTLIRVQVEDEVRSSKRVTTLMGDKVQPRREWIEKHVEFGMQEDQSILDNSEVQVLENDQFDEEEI
T2 sequence (P20083 whole entry): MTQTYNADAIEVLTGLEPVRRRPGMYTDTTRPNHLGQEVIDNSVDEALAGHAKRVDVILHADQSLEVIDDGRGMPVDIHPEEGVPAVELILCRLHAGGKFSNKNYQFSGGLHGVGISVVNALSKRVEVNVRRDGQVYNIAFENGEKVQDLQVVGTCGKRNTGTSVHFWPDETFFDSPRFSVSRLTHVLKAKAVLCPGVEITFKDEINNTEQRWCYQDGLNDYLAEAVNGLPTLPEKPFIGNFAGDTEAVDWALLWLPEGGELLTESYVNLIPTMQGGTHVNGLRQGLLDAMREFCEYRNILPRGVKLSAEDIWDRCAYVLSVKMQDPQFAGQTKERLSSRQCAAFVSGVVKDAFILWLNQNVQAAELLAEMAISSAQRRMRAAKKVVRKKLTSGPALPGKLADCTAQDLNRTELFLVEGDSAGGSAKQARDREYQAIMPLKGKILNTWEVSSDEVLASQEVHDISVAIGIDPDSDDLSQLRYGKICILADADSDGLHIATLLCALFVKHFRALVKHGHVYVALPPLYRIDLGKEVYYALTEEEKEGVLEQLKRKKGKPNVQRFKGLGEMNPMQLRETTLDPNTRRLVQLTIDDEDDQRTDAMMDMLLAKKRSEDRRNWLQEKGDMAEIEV
T2 sequence (P0AFI2 whole entry): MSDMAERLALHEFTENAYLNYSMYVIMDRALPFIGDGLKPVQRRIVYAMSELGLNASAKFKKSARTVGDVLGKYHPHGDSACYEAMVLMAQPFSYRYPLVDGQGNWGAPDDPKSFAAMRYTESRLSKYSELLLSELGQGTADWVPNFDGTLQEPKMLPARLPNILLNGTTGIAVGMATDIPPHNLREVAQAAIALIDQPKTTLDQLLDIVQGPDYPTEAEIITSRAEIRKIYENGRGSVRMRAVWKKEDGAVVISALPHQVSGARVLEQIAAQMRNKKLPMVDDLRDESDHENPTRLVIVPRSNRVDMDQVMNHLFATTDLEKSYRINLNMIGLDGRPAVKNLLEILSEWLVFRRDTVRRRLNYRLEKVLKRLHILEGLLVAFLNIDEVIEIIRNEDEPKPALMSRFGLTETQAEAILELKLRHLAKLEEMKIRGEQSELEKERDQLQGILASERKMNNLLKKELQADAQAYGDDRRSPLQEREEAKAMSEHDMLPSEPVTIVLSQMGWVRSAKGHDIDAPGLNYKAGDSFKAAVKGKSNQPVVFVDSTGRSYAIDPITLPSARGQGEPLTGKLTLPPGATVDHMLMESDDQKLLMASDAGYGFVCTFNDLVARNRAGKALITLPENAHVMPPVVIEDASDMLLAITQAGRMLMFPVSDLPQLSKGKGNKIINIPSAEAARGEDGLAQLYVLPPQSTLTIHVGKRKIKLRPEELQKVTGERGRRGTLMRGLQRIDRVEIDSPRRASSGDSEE
T1 sequence (P0AES4 whole entry, one chain of several): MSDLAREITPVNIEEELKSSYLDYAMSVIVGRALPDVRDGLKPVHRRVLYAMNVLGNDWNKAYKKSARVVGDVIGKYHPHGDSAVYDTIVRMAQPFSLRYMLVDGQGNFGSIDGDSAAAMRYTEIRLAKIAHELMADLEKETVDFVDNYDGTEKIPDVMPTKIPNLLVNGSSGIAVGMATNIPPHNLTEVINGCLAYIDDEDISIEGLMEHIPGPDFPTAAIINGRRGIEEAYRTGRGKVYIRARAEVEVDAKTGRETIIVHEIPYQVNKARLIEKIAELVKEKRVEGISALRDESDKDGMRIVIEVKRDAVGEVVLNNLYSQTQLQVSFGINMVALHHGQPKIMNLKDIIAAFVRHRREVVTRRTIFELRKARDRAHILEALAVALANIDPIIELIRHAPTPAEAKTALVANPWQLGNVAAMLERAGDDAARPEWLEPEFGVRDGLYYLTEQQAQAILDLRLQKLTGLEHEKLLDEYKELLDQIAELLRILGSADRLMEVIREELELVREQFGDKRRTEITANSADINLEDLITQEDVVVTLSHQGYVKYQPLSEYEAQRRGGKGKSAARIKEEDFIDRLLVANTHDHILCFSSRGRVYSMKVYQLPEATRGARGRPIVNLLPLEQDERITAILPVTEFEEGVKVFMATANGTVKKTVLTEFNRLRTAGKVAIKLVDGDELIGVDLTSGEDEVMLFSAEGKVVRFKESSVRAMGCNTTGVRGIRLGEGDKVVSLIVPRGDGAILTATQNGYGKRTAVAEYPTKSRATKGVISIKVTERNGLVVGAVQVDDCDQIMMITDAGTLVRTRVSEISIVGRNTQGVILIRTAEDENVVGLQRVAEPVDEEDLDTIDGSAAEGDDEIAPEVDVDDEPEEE
T4 sequence (P0AES4 whole entry, one chain of several): as above

Regarding `O=C(O[C@H]1[C@H](Oc2c(-c3ccc(O)c(O)c3)oc3cc(O)cc(O)c3c2=O)O[C@H](CO)[C@@H](O)[C@@H]1OC(=O)c1ccc(F)cc1)c1ccc(F)cc1` [Compound 15g, 2-(3′,4′-Dihydroxy)-5,7-dihydroxy-3-β-D-(2″,3″-di-p-flurobenzoyloxy)glucosyl-4H-chromen-4-one], the “MIC MRSA OM58” value in assay [1] came to 16 µg/mL (≈ 22.6 µM). For the same compound, the “MIC VISA Mu50” value in assay [2] came to 2 µg/mL (≈ 2.82 µM). The “MIC MRSA N315” value in assay [3] turned out to be 2 µg/mL (≈ 2.82 µM). The “MIC MSS 209P” value in [4] amounted to 2 µg/mL (≈ 2.82 µM). The “MIC MRSA OM481” value in assay [5] was found to be 16 µg/mL (≈ 22.6 µM). The “MIC VRE FN-1” value in [6] was determined as 8 µg/mL (≈ 11.3 µM). Besides, in assay [7], the “MIC VRE NCTC 12201” value is 8 µg/mL (≈ 11.3 µM). In [8], the “Gyrase inhibitory activity IC50” value was determined as 4.25 µg/mL.

A word on the IC50: it is the concentration that gives 50% inhibition. Take `O=C(CCc1ccc(F)cc1)OC[C@H]1O[C@@H](Oc2c(-c3ccc(O)c(O)c3)oc3cc(O)cc(O)c3c2=O)[C@H](OC(=O)CCc2ccc(F)cc2)[C@@H](O)[C@H]1O` [Compound 14i, 2-(3′,4′-Dihydroxyphenyl)-5,7-dihydroxy-3-β-D-{2″,6″-di-O-[3′″-(4-fluorophenylpropanoyl)]}galactosyl-4H-chromen-4-one]: the IC50 in assay [9] was found to be 7160 nM; in assay [10], 220 nM; in assay [11], 780 nM. Further, in [12], the “MIC S. Pneumoniae R6” value turned out to be 0.13 µg/mL (≈ 0.17 µM). The “MIC MRSA OM584” value in assay [13] is 0.13 µg/mL (≈ 0.17 µM). In addition, in assay [14], the “MIC MRSA N315” value amounted to 0.13 µg/mL (≈ 0.17 µM). Further, the “MIC MRSA OM481” value in assay [15] worked out at 0.13 µg/mL (≈ 0.17 µM). In assay [16], the “MIC MSSA 209P” value is 0.13 µg/mL (≈ 0.17 µM). For the same compound, in assay [17], the “MIC MRSA COL” value was 0.5 µg/mL (≈ 0.654 µM). In addition, the “MIC VRE NCTC 12201” value in assay [18] was 0.25 µg/mL (≈ 0.327 µM). Also, the “MIC VRE FN-1” value in [19] is 0.25 µg/mL (≈ 0.327 µM). Besides, in assay [20], the “MIC VISA Mu50” value is 0.5 µg/mL (≈ 0.654 µM). Also, in [21], the “MIC (Gram-nagative) K-12” value is greater than 128 µg/mL. In addition, the “MIC (Gram-nagative) PAO1” value in [22] is greater than 128 µg/mL.
